Measurements: patent US9999622B2, “Pyrazolothiazole compound and medicine comprising same” (NIPPON SHINYAKU CO., LTD., priority 2014, dated 2018)

Legend:
Type in all cases: biochemical
JAK2 = target: T1, JAK2 (Homo sapiens, UniProt O60674); experiment: JAK tyrosine kinase inhibitory activity in the presence of 1 mM ATP (ELISA), JAK2
T1 construct: purchased Carna Biosciences, Inc
Experimental: (§1) 1. Preparation of Test Compound
(§2) The test compound was dissolved in dimethyl sulfoxide (DMSO) to 10 mM and further diluted with DMSO to the concentrations of 1000, 100, 10, 1, 0.1 and 0.01 μM, respectively. For JAK1, these solutions of the test compound at the six concentrations 10 mM, 1000 μM, 100 μM, 10 μM, 1 μM and 0.1 μM were used. For JAK2 and JAK3, these solutions of the test compound at the six concentrations 1000 μM, 100 μM, 10 μM, 1 μM, 0.1 μM and 0.01 μM were used. The test compound solutions were diluted further to 20-fold with an assay buffer to obtain a sample solution. 15 mM Tris-HCl (pH7.5), 0.01 (v/v) % Tween-20 and 1 mM dithiothreitol were used as an assay buffer. DMSO was diluted to 20-fold with the assay buffer and was used as a negative control.
(§3) 2. JAK Tyrosine Kinase Inhibitory Activity in the Presence of 1 mM Atp
(§4) The activity was determined by ELISA method. Each of the sample solutions was added to a streptavidine coated 96-well plate (DELFIA Strip Plate 8×12 well, PerkinElmer) at 10 μL/well (n=2). […] Finally, JAK tyrosine kinase (Carna Biosciences, Inc.), which was previously diluted with the assay buffer to 7.5 nM for JAK1 and 0.75 nM for JAK2 and JAK3, was added to the plate at 20 μL/well, and the plate was incubated at 30° C. for 1 h. The plate was washed four times with buffer (50 mM Tris-HCl (pH 7.5), 150 mM NaCl, 0.02 (v/v) % Tween-20). A blocking buffer (0.1% Bovine Serum Albumin, 50 mM Tris-HCl (pH 7.5), 150 mM NaCl, 0.02 (v/v) % Tween-20) was added to the plate at 150 μL/well and the plate was blocked at 30° C. for 1 h. The blocking buffer was removed, and a horse radish peroxidase-labeled anti-phosphorylated tyrosine antibody (BD Biosciences, Inc.) (diluted to 10000-fold with the blocking buffer) was added to the plate at 100 μL/well, and the plate was incubated at 30° C. for 30 min. The plate was washed with the washing buffer four times, and 3,3′,5,5′-tetramethylbenizidine solution (Nacalai Tesque) was added to the plate at 100 μL/well to develop the color for 10 minutes. To the plate was added 0.1 M sulfuric acid at 100 μL/well to stop the reaction. The absorbance at 450 nm was measured using a microplate reader (BIO-RAD).
(§5) 3. Analysis of the Results

JAK3 = target: T2, JAK3 (Homo sapiens, UniProt P52333); experiment: JAK tyrosine kinase inhibitory activity in the presence of 1 mM ATP (ELISA), JAK3
T2 construct: purchased Carna Biosciences, Inc
T2 sequence (P52333 1-1124): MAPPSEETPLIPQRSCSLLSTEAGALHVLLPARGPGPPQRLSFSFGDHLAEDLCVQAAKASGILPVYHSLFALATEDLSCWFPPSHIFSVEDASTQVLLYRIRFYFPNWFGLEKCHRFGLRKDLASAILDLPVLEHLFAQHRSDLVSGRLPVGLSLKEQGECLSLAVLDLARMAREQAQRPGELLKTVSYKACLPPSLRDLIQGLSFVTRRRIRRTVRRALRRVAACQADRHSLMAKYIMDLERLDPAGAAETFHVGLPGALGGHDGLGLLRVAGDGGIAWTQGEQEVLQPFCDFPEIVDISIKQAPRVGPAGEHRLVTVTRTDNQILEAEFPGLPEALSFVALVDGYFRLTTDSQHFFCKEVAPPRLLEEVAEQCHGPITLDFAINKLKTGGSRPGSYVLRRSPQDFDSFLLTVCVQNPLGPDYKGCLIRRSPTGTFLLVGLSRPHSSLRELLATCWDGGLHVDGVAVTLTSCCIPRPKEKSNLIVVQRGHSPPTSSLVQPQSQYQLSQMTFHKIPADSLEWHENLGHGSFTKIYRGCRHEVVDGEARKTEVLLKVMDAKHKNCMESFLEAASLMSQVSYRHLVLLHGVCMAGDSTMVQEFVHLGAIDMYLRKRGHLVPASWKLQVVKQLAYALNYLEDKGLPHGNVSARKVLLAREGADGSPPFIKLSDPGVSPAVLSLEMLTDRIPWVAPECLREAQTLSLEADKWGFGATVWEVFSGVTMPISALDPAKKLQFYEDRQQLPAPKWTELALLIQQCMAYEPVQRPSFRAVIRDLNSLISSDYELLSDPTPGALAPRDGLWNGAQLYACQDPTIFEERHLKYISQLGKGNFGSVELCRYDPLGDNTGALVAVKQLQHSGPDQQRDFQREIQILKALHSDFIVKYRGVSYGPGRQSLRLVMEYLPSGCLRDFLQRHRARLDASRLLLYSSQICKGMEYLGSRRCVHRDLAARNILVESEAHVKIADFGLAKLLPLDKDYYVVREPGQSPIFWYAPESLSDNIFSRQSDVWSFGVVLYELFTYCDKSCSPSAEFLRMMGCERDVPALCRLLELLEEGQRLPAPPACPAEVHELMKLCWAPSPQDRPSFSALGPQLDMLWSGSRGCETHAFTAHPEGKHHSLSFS
Experimental: as §1, §2, §3, §4, §5

JAK1 = target: T3, JAK1 (Homo sapiens, UniProt P23458); experiment: JAK tyrosine kinase inhibitory activity in the presence of 1 mM ATP (ELISA), JAK1
T3 construct: purchased Carna Biosciences, Inc
T3 sequence (P23458 whole entry): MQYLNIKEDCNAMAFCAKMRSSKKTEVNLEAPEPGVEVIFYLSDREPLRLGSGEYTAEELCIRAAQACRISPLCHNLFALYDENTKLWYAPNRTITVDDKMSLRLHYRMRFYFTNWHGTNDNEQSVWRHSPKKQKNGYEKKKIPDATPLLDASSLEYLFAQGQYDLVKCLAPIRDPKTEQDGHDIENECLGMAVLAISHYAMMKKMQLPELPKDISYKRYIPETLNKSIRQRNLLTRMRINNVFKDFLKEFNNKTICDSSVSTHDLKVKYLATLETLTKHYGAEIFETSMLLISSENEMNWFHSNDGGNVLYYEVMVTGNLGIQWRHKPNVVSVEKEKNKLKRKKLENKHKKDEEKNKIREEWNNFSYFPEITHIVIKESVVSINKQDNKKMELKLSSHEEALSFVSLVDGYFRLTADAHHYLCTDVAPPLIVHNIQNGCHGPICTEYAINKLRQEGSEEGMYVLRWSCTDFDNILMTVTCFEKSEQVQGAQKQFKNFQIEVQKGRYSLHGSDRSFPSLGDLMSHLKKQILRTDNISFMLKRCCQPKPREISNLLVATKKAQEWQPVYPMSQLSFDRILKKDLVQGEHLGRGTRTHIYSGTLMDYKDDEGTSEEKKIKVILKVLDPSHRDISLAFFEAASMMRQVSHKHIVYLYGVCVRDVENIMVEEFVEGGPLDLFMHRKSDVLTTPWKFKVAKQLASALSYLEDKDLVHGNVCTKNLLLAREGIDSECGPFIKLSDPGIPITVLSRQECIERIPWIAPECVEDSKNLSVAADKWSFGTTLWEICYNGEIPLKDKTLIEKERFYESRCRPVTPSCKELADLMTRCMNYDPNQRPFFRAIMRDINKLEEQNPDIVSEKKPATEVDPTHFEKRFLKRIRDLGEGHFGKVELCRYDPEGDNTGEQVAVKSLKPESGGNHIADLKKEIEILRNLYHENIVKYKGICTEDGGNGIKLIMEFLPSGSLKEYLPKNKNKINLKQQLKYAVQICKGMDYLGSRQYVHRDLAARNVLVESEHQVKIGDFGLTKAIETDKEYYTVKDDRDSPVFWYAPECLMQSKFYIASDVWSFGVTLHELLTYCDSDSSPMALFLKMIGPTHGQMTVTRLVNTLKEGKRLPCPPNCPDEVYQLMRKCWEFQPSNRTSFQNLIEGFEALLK
Experimental: as §1, §2, §3, §4, §5

T1 sequence (O60674 whole entry): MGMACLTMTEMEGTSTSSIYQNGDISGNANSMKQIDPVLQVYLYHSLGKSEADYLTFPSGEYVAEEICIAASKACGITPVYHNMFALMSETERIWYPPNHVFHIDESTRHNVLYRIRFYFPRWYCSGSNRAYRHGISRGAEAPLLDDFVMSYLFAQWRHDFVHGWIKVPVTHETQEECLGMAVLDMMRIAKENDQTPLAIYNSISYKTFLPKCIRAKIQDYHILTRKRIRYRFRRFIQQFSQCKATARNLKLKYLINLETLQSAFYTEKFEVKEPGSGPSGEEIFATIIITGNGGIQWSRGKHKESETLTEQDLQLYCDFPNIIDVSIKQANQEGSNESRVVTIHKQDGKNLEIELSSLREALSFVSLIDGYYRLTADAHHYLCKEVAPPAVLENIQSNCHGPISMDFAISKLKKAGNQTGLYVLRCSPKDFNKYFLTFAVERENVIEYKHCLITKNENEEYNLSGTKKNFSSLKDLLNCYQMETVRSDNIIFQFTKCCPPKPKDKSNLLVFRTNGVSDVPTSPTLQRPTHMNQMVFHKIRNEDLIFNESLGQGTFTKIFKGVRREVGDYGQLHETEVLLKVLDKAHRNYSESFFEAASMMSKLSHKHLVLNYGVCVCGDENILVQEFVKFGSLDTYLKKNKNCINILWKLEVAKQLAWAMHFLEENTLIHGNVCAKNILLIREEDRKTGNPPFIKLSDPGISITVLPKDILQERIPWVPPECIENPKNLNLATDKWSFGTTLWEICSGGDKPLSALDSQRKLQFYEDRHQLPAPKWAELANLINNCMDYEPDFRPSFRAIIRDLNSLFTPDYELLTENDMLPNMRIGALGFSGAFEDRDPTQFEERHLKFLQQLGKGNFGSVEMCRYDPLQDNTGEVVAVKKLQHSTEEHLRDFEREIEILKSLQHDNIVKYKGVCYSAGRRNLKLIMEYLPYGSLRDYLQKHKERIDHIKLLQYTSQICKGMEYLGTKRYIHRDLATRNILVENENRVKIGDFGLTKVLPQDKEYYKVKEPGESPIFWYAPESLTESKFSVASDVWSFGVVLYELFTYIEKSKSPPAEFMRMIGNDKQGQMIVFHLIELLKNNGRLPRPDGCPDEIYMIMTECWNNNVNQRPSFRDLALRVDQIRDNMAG

| SMILES | IC50 (JAK2) | IC50 (JAK3) | IC50 (JAK1) |
| --- | --- | --- | --- |
| COC(=O)NC1CCN(C(=O)c2cc(OC(C)C(C)(C)C)nc(-c3cnn4ccsc34)n2)CC1 (stereo not drawn) [Example 64, Methyl [1-({6-[(3,3-dimethylbutan-2-yl)oxy]-2-(pyrazolo[5,1-b][1,3]thiazol-7-yl)pyrimidin-4-yl}carbonyl)piperidin-4-yl]carbamate] | 3100 nM | > 10000 nM | 260 nM |
| COC(=O)NC1CCN(C(=O)c2cc(N[C@H](C)C3CCCCC3)nc(-c3cnn4ccsc34)n2)CC1 [Example 161, Methyl 1-[6-[(1R)-1-cyclohexylethyl]amino-2-(pyrazolo[5,1-b][1,3]thiazol-7-yl)pyrimidine-4-carbonyl]piperidin-4-ylcarbamate] | > 10000 nM | > 10000 nM | 47 nM |
| CC(=O)NC1CCN(C(=O)c2cc(N[C@@H](C)C3CC3)nc(-c3cnn4ccsc34)n2)CC1 [Example 2, N-(1-{[6-{[(1S)-1-Cyclopropylethyl]amino}-2-(pyrazolo[5,1-b][1,3]thiazol-7-yl)pyrimidin-4-yl]carbonyl}piperidin-4-yl)acetamide] | 2100 nM | 2700 nM | 570 nM |
| COc1ccc([C@@H](C)Nc2cc(C(=O)N3CCC(NC(=O)C4CC4)CC3)nc(-c3cnn4ccsc34)n2)cc1 [Example 52, N-(1-{[6-{[(1R)-1-(4-Methoxyphenyl)ethyl]amino}-2-(pyrazolo[5,1-b][1,3]thiazol-7-yl)pyrimidin-4-yl]carbonyl}piperidin-4-yl)cyclopropanecarboxamide] | 9300 nM | > 10000 nM | 180 nM |
| CC(C)C(=O)NC1CCN(C(=O)c2cc(N[C@H](C)c3ccc(F)cc3)nc(-c3cnn4ccsc34)n2)CC1 [Example 79, N-(1-{[6-{[(1R)-1-(4-Fluorophenyl)ethyl]amino}-2-(pyrazolo[5,1-b][1,3]thiazol-7-yl)pyrimidin-4-yl]carbonyl}piperidin-4-yl)-2-methylpropanamide] | 3300 nM | > 10000 nM | 870 nM |
| COC(=O)NC1CCN(C(=O)c2cc(NC(C)(C)C)nc(-c3cnn4ccsc34)n2)CC1 [Example 59, Methyl (1-{[6-(tert-butylamino)-2-(pyrazolo[5,1-b][1,3]thiazol-7-yl)pyrimidin-4-yl]carbonyl}piperidin-4-yl)carbamate] | 3900 nM | 5600 nM | 140 nM |
| CCC(CC)Oc1cc(C(=O)N2CCC(NC(=O)C3CC3)CC2)nc(-c2cnn3ccsc23)n1 [Example 111, N-(1-{[6-(Pentan-3-yloxy)-2-(pyrazolo[5,1-b][1,3]thiazol-7-yl)pyrimidin-4-yl]carbonyl}piperidin-4-yl)cyclopropanecarboxamide] | 2400 nM | > 10000 nM | 120 nM |
| Cc1c(N[C@@H](C)C2CC2)nc(-c2cnn3ccsc23)nc1C(=O)N1CCC(NC(=O)C2CC2)CC1 [Example 12, N-(1-{[6-{[(1S)-1-Cyclopropylethyl]amino}-5-methyl-2-(pyrazolo[5,1-b][1,3]thiazol-7-yl)pyrimidin-4-yl]carbonyl}piperidin-4-yl)cyclopropanecarboxamide] | 2200 nM | 1800 nM | 120 nM |
| CCCOC(=O)NC1CCN(C(=O)c2cc(N[C@H](C)C(C)(C)C)nc(-c3cnn4ccsc34)n2)CC1 [Example 85, Propyl (1-{[6-{[(2R)-3,3-dimethylbutan-2-yl]amino}-2-(pyrazolo[5,1-b][1,3]thiazol-7-yl)pyrimidin-4-yl]carbonyl}piperidin-4-yl)carbamate] | 2200 nM | 2300 nM | 330 nM |
| CCOc1c(N[C@@H](C)C2CC2)nc(-c2cnn3ccsc23)nc1C(=O)N1CCC(NC(=O)OC)CC1 [Example 154, Methyl (1-{[6-{[(1S)-1-cyclopropylethyl]amino}-5-ethoxy-2-(pyrazolo[5,1-b][1,3]thiazol-7-yl)pyrimidin-4-yl]carbonyl}piperidin-4-yl)carbamate] | 5300 nM | 3100 nM | 180 nM |
| O=C(NC1CCN(C(=O)c2cc(NCC3(COC(F)F)CCOCC3)nc(-c3cnn4ccsc34)n2)CC1)C1CC1 [Example 11, N-[1-({6-[({4-[(Difluoromethoxy)methyl]tetrahydro-2H-pyran-4-yl}methyl)amino]-2-(pyrazolo[5,1-b][1,3]thiazol-7-yl)pyrimidin-4-yl}carbonyl)piperidin-4-yl]cyclopropanecarboxamide] | 2500 nM | 4800 nM | 21 nM |

Other lines, results leading:

| IC50 (JAK2) | IC50 (JAK3) | IC50 (JAK1) | SMILES |
| --- | --- | --- | --- |
| 9500 nM | 1100 nM | 230 nM | C[C@H](Nc1cc(C(=O)N2CCC(NC(=O)C3CCCCC3)CC2)nc(-c2cnn3ccsc23)n1)C1CC1 [Example 167, N-1-[6-[(1S)-1-cyclopropylethyl]amino-2-(pyrazolo[5,1-b][1,3]thiazol-7-yl)pyrimidine-4-carbonyl]piperidin-4-ylcyclohexanecarboxamide] |
| > 10000 nM | > 10000 nM | 2700 nM | N#CCC(=O)N1CC[C@H](Nc2cc(C(=O)N3CCC(NC(=O)C4CC4)CC3)nc(-c3cnn4ccsc34)n2)C1 [Example 204, N-1-[6-[(3S)-1-(cyanoacetyl)pyrrolidin-3-yl]amino-2-(pyrazolo[5,1-b][1,3]thiazol-7-yl)pyrimidine-4-carbonyl]piperidin-4-ylcyclopropanecarboxamide] |
| 1700 nM | 2200 nM | 220 nM | CCC(CC)Nc1cc(C(=O)N2CCC(NC(=O)C3CC3)CC2)nc(-c2cnn3ccsc23)n1 [Example 124, N-(1-{[6-(Pentan-3-ylamino)-2-(pyrazolo[5,1-b][1,3]thiazol-7-yl)pyrimidin-4-yl]carbonyl}piperidin-4-yl)cyclopropanecarboxamide] |
| 4400 nM | 4600 nM | 78 nM | O=C(NC1CCN(C(=O)c2cc(NC3CC4CCC3C4)nc(-c3cnn4ccsc34)n2)CC1)C1CC1 [Example 176, N-1-[6-[(1R)-bicyclo[2.2.1]heptan-2-yl]amino-2-(pyrazolo[5,1-b][1,3]thiazol-7-yl)pyrimidine-4-carbonyl]piperidin-4-ylcyclopropanecarboxamide] |
| > 10000 nM | > 10000 nM | 3400 nM | O=C(NC1CCN(C(=O)c2cc(NC3COC3)nc(-c3cnn4ccsc34)n2)CC1)C1CC1 [Example 173, N-(1-6-[(oxetan-3-yl)amino]-2-(pyrazolo[5,1-b][1,3]thiazol-7-yl)pyrimidine-4-carbonylpiperidin-4-yl)cyclopropanecarboxamide] |
